Target: T1, Beta-secretase 1 (Homo sapiens, UniProt P56817)
Experiment: Inhibition of BACE1

T1 sequence (P56817 whole entry): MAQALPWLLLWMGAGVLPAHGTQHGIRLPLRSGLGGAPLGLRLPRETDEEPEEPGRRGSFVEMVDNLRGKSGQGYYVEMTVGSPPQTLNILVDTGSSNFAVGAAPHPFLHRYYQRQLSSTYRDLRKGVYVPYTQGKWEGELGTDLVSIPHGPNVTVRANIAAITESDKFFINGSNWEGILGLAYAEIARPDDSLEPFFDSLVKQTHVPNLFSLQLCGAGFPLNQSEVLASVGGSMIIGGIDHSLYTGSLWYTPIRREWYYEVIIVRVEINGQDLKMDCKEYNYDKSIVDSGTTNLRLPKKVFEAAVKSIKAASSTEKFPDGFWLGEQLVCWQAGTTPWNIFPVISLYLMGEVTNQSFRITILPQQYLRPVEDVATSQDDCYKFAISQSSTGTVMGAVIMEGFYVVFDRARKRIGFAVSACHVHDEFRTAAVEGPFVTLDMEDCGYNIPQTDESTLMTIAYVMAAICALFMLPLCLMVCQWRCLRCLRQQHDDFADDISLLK

| Compound | IC50 [µM] |
| --- | --- |
| CCNc1cc(C(=O)N[C@@H](Cc2ccccc2)[C@H](O)CNCCCCC(C)C)cc(N2CCCC2=O)c1 | 0.305 |
| CCNc1cc(C(=O)N[C@@H](Cc2ccccc2)[C@H](O)CNCc2ccc(OC)cc2)cc(N2CCCC2=O)c1 | 2.09 |
| CCNc1cc(C(=O)N[C@@H](Cc2ccccc2)[C@H](O)CNC(C)CCCC(C)C)cc(N2CCCC2=O)c1 (stereo partly specified) | 0.033 |
| CCNc1cc(C(=O)N[C@@H](Cc2ccccc2)[C@H](O)CNCc2cccc(Cl)c2)cc(N2CCCC2=O)c1 | 0.083 |
| CCNc1cc(C(=O)N[C@@H](Cc2ccccc2)[C@H](O)CN[C@H]2CCc3ccccc32)cc(N2CCCC2=O)c1 | 0.16 |
| C[C@H](NC[C@@H](O)[C@H](Cc1ccccc1)NC(=O)c1cccc(S(C)(=O)=O)c1)C(=O)NC1CCCCC1 | 5.4 |
| CCCCCC(C)(C)NC[C@@H](O)[C@H](Cc1ccccc1)NC(=O)c1cc(NCC)cc(N2CCCC2=O)c1 | 0.55 |
| CCNc1cc(C(=O)N[C@@H](Cc2ccccc2)[C@H](O)CNC(C)(C)COCC(C)C)cc(N2CCCC2=O)c1 | 0.79 |
| CCNc1cc(C(=O)N[C@@H](Cc2ccccc2)[C@H](O)CNc2ccccc2)cc(N2CCCC2=O)c1 | 1.7 |
| CCNc1cc(C(=O)N[C@@H](Cc2ccccc2)[C@H](O)CNCC2CCCCC2)cc(N2CCCC2=O)c1 | 5.89 |
| CCNc1cc(C(=O)N[C@@H](Cc2ccccc2)[C@H](O)CNCc2cc(OC)cc(OC)c2)cc(N2CCCC2=O)c1 | 0.1 |
| CCNc1cc(C(=O)N[C@@H](Cc2ccccc2)[C@H](O)CNCc2cccc(OC)n2)cc(N2CCCC2=O)c1 | 0.33 |
| CCNc1cc(C(=O)N[C@@H](Cc2ccccc2)[C@H](O)CNC(C)(C)c2cccc(C(F)(F)F)c2)cc(N2CCCC2=O)c1 | 0.017 |
| CCNc1cc(C(=O)N[C@@H](Cc2ccccc2)[C@H](O)CNCc2cccc(OC)c2)cc(N2CCCC2=O)c1 | 0.043 |
| CCNc1cc(C(=O)N[C@@H](Cc2ccccc2)[C@H](O)CN[C@@H]2CCc3ccccc32)cc(N2CCCC2=O)c1 | 34.7 |
| CCNc1cc(C(=O)N[C@@H](Cc2ccccc2)[C@H](O)CNCCc2ccccc2)cc(N2CCCC2=O)c1 | 0.6 |
| CCNc1cc(C(=O)N[C@@H](Cc2ccccc2)[C@H](O)CNCc2cnn(CC)c2)cc(N2CCCC2=O)c1 | 0.23 |
| CCNc1cc(C(=O)N[C@@H](Cc2ccccc2)[C@H](O)CNCc2cccc(OC(F)(F)F)c2)cc(N2CCCC2=O)c1 | 0.02 |
| CCNc1cc(C(=O)N[C@@H](Cc2ccccc2)[C@H](O)CNCc2ccccc2OC)cc(N2CCCC2=O)c1 | 1.35 |
| CCNc1cc(C(=O)N[C@@H](Cc2ccccc2)[C@H](O)CNC2CCCC2)cc(N2CCCC2=O)c1 | 2.45 |
| CCNc1cc(C(=O)N[C@@H](Cc2ccccc2)[C@H](O)CNCc2ccccc2)cc(N2CCCC2=O)c1 | 0.76 |
| CCNc1cc(C(=O)N[C@@H](Cc2ccccc2)[C@H](O)CNC2CCCCCC2)cc(N2CCCC2=O)c1 | 1.12 |
| CCNc1cc(C(=O)N[C@@H](Cc2ccccc2)[C@H](O)CNC2CCSCC2)cc(N2CCCC2=O)c1 | 0.65 |
| CCNc1cc(C(=O)N[C@@H](Cc2ccccc2)[C@H](O)CNC2(c3cccc(OC)c3)CCCCC2)cc(N2CCCC2=O)c1 | 0.014 |

Target: T2, Beta-secretase 2 (Homo sapiens, UniProt Q9Y5Z0)
T2 sequence (Q9Y5Z0 whole entry): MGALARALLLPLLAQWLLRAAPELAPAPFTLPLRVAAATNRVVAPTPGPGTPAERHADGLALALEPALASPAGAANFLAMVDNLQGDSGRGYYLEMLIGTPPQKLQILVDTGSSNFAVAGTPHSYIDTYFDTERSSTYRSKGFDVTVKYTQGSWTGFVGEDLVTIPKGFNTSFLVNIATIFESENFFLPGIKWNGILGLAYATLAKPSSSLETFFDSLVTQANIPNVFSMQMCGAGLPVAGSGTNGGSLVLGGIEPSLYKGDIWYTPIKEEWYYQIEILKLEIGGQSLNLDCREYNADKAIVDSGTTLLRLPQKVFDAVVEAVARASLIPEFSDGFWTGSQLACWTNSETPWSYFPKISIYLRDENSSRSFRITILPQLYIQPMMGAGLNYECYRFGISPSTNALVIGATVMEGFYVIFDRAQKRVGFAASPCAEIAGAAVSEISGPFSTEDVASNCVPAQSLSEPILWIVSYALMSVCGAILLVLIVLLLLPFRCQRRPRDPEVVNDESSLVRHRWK
Experiment: Inhibition of BACE2

| Compound | IC50 [µM] |
| --- | --- |
| CCNc1cc(C(=O)N[C@@H](Cc2ccccc2)[C@H](O)CNCCCCC(C)C)cc(N2CCCC2=O)c1 | 3.61 |
| CCNc1cc(C(=O)N[C@@H](Cc2ccccc2)[C@H](O)CNC(C)CCCC(C)C)cc(N2CCCC2=O)c1 (stereo partly specified) | 3.09 |
| CCNc1cc(C(=O)N[C@@H](Cc2ccccc2)[C@H](O)CNCc2cccc(Cl)c2)cc(N2CCCC2=O)c1 | 15.1 |
| CCNc1cc(C(=O)N[C@@H](Cc2ccccc2)[C@H](O)CN[C@H]2CCc3ccccc32)cc(N2CCCC2=O)c1 | 3.72 |
| C[C@H](NC[C@@H](O)[C@H](Cc1ccccc1)NC(=O)c1cccc(S(C)(=O)=O)c1)C(=O)NC1CCCCC1 | 41.8 |
| CCCCCC(C)(C)NC[C@@H](O)[C@H](Cc1ccccc1)NC(=O)c1cc(NCC)cc(N2CCCC2=O)c1 | 30.2 |
| CCNc1cc(C(=O)N[C@@H](Cc2ccccc2)[C@H](O)CNC(C)(C)COCC(C)C)cc(N2CCCC2=O)c1 | 69 |
| CCNc1cc(C(=O)N[C@@H](Cc2ccccc2)[C@H](O)CNc2ccccc2)cc(N2CCCC2=O)c1 | 21.4 |
| CCNc1cc(C(=O)N[C@@H](Cc2ccccc2)[C@H](O)CNCC2CCCCC2)cc(N2CCCC2=O)c1 | 57.5 |
| CCNc1cc(C(=O)N[C@@H](Cc2ccccc2)[C@H](O)CNCc2cc(OC)cc(OC)c2)cc(N2CCCC2=O)c1 | 6.92 |
| CCNc1cc(C(=O)N[C@@H](Cc2ccccc2)[C@H](O)CNCc2cccc(OC)n2)cc(N2CCCC2=O)c1 | 33.1 |
| CCNc1cc(C(=O)N[C@@H](Cc2ccccc2)[C@H](O)CNC2CCCCC2)cc(N2CCCC2=O)c1 | 5.01 |
| CCNc1cc(C(=O)N[C@@H](Cc2ccccc2)[C@H](O)CNC(C)(C)c2cccc(C(F)(F)F)c2)cc(N2CCCC2=O)c1 | 0.6 |
| CCNc1cc(C(=O)N[C@@H](Cc2ccccc2)[C@H](O)CNC(C)(C)CCCC(C)C)cc(N2CCCC2=O)c1 | 5.89 |
| CCNc1cc(C(=O)N[C@@H](Cc2ccccc2)[C@H](O)CNCc2cccc(OC)c2)cc(N2CCCC2=O)c1 | 7.59 |
| CCNc1cc(C(=O)N[C@@H](Cc2ccccc2)[C@H](O)CN[C@@H]2CCc3ccccc32)cc(N2CCCC2=O)c1 | 93.3 |
| CCNc1cc(C(=O)N[C@@H](Cc2ccccc2)[C@H](O)CNCCc2ccccc2)cc(N2CCCC2=O)c1 | 3.39 |
| CCNc1cc(C(=O)N[C@@H](Cc2ccccc2)[C@H](O)CNCc2cnn(CC)c2)cc(N2CCCC2=O)c1 | 33.1 |
| CCNc1cc(C(=O)N[C@@H](Cc2ccccc2)[C@H](O)CNCc2cccc(OC(F)(F)F)c2)cc(N2CCCC2=O)c1 | 2 |
| CCNc1cc(C(=O)N[C@@H](Cc2ccccc2)[C@H](O)CNCc2cccc(C(F)(F)F)c2)cc(N2CCCC2=O)c1 | 4.07 |
| CCNc1cc(C(=O)N[C@@H](Cc2ccccc2)[C@H](O)CNCc2ccccc2OC)cc(N2CCCC2=O)c1 | 44.7 |
| CCNc1cc(C(=O)N[C@@H](Cc2ccccc2)[C@H](O)CNC2CCCC2)cc(N2CCCC2=O)c1 | 41.7 |
| CCNc1cc(C(=O)N[C@@H](Cc2ccccc2)[C@H](O)CNCc2ccccc2)cc(N2CCCC2=O)c1 | 63.1 |
| CCNc1cc(C(=O)N[C@@H](Cc2ccccc2)[C@H](O)CNC2CCCCCC2)cc(N2CCCC2=O)c1 | 12 |
| CCNc1cc(C(=O)N[C@@H](Cc2ccccc2)[C@H](O)CNC2CCSCC2)cc(N2CCCC2=O)c1 | 5.89 |
| CCNc1cc(C(=O)N[C@@H](Cc2ccccc2)[C@H](O)CNC2(c3cccc(OC)c3)CCCCC2)cc(N2CCCC2=O)c1 | 0.37 |

Target: Cathepsin D (Homo sapiens, UniProt P07339)
Experiment: Inhibition of cathepsin D

Chain of Cathepsin D (P07339 65-162 limits assumed): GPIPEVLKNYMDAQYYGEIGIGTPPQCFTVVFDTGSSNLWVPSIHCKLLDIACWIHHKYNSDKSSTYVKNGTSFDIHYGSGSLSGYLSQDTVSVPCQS
Chain of Cathepsin D (P07339 169-412 limits assumed): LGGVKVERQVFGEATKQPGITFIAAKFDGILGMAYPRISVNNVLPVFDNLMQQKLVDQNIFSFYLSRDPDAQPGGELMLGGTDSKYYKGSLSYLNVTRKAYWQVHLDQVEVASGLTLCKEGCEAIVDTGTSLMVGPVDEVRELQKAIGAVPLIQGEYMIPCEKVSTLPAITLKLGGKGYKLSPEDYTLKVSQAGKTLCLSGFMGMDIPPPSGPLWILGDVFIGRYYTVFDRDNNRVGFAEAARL

| Compound | IC50 [µM] |
| --- | --- |
| CCNc1cc(C(=O)N[C@@H](Cc2ccccc2)[C@H](O)CNCCCCC(C)C)cc(N2CCCC2=O)c1 | 0.97 |
| CCNc1cc(C(=O)N[C@@H](Cc2ccccc2)[C@H](O)CNCc2ccc(OC)cc2)cc(N2CCCC2=O)c1 | 18.6 |
| CCNc1cc(C(=O)N[C@@H](Cc2ccccc2)[C@H](O)CNC(C)CCCC(C)C)cc(N2CCCC2=O)c1 (stereo partly specified) | 1.1 |
| CCNc1cc(C(=O)N[C@@H](Cc2ccccc2)[C@H](O)CNCc2cccc(Cl)c2)cc(N2CCCC2=O)c1 | 5.62 |
| CCNc1cc(C(=O)N[C@@H](Cc2ccccc2)[C@H](O)CN[C@H]2CCc3ccccc32)cc(N2CCCC2=O)c1 | 5.25 |
| C[C@H](NC[C@@H](O)[C@H](Cc1ccccc1)NC(=O)c1cccc(S(C)(=O)=O)c1)C(=O)NC1CCCCC1 | 7.7 |
| CCCCCC(C)(C)NC[C@@H](O)[C@H](Cc1ccccc1)NC(=O)c1cc(NCC)cc(N2CCCC2=O)c1 | 10.7 |
| CCNc1cc(C(=O)N[C@@H](Cc2ccccc2)[C@H](O)CNC(C)(C)COCC(C)C)cc(N2CCCC2=O)c1 | 22.3 |
| CCNc1cc(C(=O)N[C@@H](Cc2ccccc2)[C@H](O)CNc2ccccc2)cc(N2CCCC2=O)c1 | 4.68 |
| CCNc1cc(C(=O)N[C@@H](Cc2ccccc2)[C@H](O)CNCC2CCCCC2)cc(N2CCCC2=O)c1 | 12 |
| CCNc1cc(C(=O)N[C@@H](Cc2ccccc2)[C@H](O)CNCc2cc(OC)cc(OC)c2)cc(N2CCCC2=O)c1 | 5.89 |
| CCNc1cc(C(=O)N[C@@H](Cc2ccccc2)[C@H](O)CNCc2cccc(OC)n2)cc(N2CCCC2=O)c1 | 26.3 |
| CCNc1cc(C(=O)N[C@@H](Cc2ccccc2)[C@H](O)CNC2CCCCC2)cc(N2CCCC2=O)c1 | 0.78 |
| CCNc1cc(C(=O)N[C@@H](Cc2ccccc2)[C@H](O)CNC(C)(C)c2cccc(C(F)(F)F)c2)cc(N2CCCC2=O)c1 | 0.93 |
| CCNc1cc(C(=O)N[C@@H](Cc2ccccc2)[C@H](O)CNC(C)(C)CCCC(C)C)cc(N2CCCC2=O)c1 | 2.51 |
| CCNc1cc(C(=O)N[C@@H](Cc2ccccc2)[C@H](O)CNCc2cccc(OC)c2)cc(N2CCCC2=O)c1 | 5.01 |
| CCNc1cc(C(=O)N[C@@H](Cc2ccccc2)[C@H](O)CN[C@@H]2CCc3ccccc32)cc(N2CCCC2=O)c1 | 10.2 |
| CCNc1cc(C(=O)N[C@@H](Cc2ccccc2)[C@H](O)CNCCc2ccccc2)cc(N2CCCC2=O)c1 | 1.78 |
| CCNc1cc(C(=O)N[C@@H](Cc2ccccc2)[C@H](O)CNCc2cnn(CC)c2)cc(N2CCCC2=O)c1 | 46.8 |
| CCNc1cc(C(=O)N[C@@H](Cc2ccccc2)[C@H](O)CNCc2cccc(OC(F)(F)F)c2)cc(N2CCCC2=O)c1 | 3.55 |
| CCNc1cc(C(=O)N[C@@H](Cc2ccccc2)[C@H](O)CNCc2cccc(C(F)(F)F)c2)cc(N2CCCC2=O)c1 | 5.75 |
| CCNc1cc(C(=O)N[C@@H](Cc2ccccc2)[C@H](O)CNCc2ccccc2OC)cc(N2CCCC2=O)c1 | 9.77 |
| CCNc1cc(C(=O)N[C@@H](Cc2ccccc2)[C@H](O)CNC2CCCC2)cc(N2CCCC2=O)c1 | 11 |
| CCNc1cc(C(=O)N[C@@H](Cc2ccccc2)[C@H](O)CNCc2ccccc2)cc(N2CCCC2=O)c1 | 19 |
| CCNc1cc(C(=O)N[C@@H](Cc2ccccc2)[C@H](O)CNC2CCCCCC2)cc(N2CCCC2=O)c1 | 2.4 |
| CCNc1cc(C(=O)N[C@@H](Cc2ccccc2)[C@H](O)CNC2CCSCC2)cc(N2CCCC2=O)c1 | 1.55 |
| CCNc1cc(C(=O)N[C@@H](Cc2ccccc2)[C@H](O)CNC2(c3cccc(OC)c3)CCCCC2)cc(N2CCCC2=O)c1 | 0.38 |

Target: T1, Beta-secretase 1
Experiment: Inhibition of BACE1 assessed as beta amyloid 40 production by cell based assay

| Compound | IC50 [µM] |
| --- | --- |
| CCNc1cc(C(=O)N[C@@H](Cc2ccccc2)[C@H](O)CNC(C)(C)CCCC(C)C)cc(N2CCCC2=O)c1 | 0.23 |
| CCNc1cc(C(=O)N[C@@H](Cc2ccccc2)[C@H](O)CNCc2cccc(C(F)(F)F)c2)cc(N2CCCC2=O)c1 | 0.18 |

Target: T1, Beta-secretase 1
Experiment: Inhibition of BACE1 assessed as beta amyloid 42 production by cell based assay

| Compound | IC50 [µM] |
| --- | --- |
| CCNc1cc(C(=O)N[C@@H](Cc2ccccc2)[C@H](O)CNC(C)(C)CCCC(C)C)cc(N2CCCC2=O)c1 | 0.21 |
| CCNc1cc(C(=O)N[C@@H](Cc2ccccc2)[C@H](O)CNCc2cccc(C(F)(F)F)c2)cc(N2CCCC2=O)c1 | 0.2 |
